Where a name gives a salt, the structure may show the parent alone.
Columns and labels:
Assay type in all cases: in vivo, mouse
mice [1] = assay: Comparison of sedative effects with other test substances (FIG. 3); details: same dose, 0.8 g/kg, p.o.
mice [2] = assay: Deep body temperature measurement, comparison with other test substances (FIG. 18); details: same concentration for all test substances
male C57BL/6N mice [3] = assay: Forced swimming treatment and amount of spontaneous activity in dark period (fatigue-relieving effects); details: dark period after 30 minutes of forced swimming; compared with FS-Vehicle group
Procedure: An experiment for determining the fatigue-improving effects (action) was conducted using a forced swimming test for mice and a system for measuring the amount of spontaneous activity. Sixty eight (68) male C57BL/6N mice that had experienced no experiment were bred in an animal room with a constant temperature and humidity for which a 12-12-hour light-dark cycle had been set. Mice were sufficiently acclimatized to breeding environment and then used as subject animals. At the start of the experiment, mice were 10-12-week old and the average body weight was 22.8 g (SD =1.28). The subject animals were divided into seven groups so that the groups were almost the same in terms of average body weights and average ages in weeks. These groups were designated an FS-Akino group (n=11), an FS-Vehicle group (n=10), a noFS-Vehicle group (n=9), an FS-Dia group (n=9), an FS-Caf group (n=9), an FS-Imi group (n=11), and an FS-SSRI group (n=9).
A cylindrical water tank (with the bottom surface having a diameter of 18 cm and a height of 29 cm) placed in an experimental chamber capable of achieving sound proof and light shielding was filled with water at 24±1° C. to a depth of 15 cm. At 7 hours before the start of a dark period, subject mice under FS conditions were subjected to 30 minutes of forced swimming treatment in the tank. Specifically, subject mice were forced to swim under conditions in which they could not escape. Subject mice of the control noFS-Cnt group were left to stand within the same type of empty water tank for 30 minutes.
After 30 minutes of forced swimming treatment, Akino (the water soluble ingredient extracted from Hemerocallis fulva var. sempervirens), diazepam (Dia, 2.5 mg/kg), caffeine (Caf, 15 mg/kg), imipramine (Imi, 30 mg/kg), SSRI (fluvoxamine maleate, 25 mg/kg), or Vehicle (distilled water), which is an ingredient, corresponding to the latter half of each group name, were specifically administered to each subject mouse. Akino and distilled water were orally administered using a stomach tube, and diazepam, caffeine, imipramine, and SSRI were injected intraperitoneally. The dose was always 10 ml of solution per kg mouse body weight.
After administration of these drugs, subject mice were placed in acrylic cages (20 cm long×30 cm wide×12 cm high). The amount of spontaneous activity (in the dark period that began at 6 hours after administration) was continuously measured for 12 hours. The breeding cages used herein were sterilized in advance. All floor mats, feeding stuffs, water supply bottles, and the like used herein were newly prepared. The amount of spontaneous activity was measured using a system for measuring the amount of exercise of experimental animals (Muromachi Kikai Co., Ltd.) using Super Mex Sensor and dedicated software (CompACT AMS ver.3).

male C57BL/6N mice [4] = assay: Open space swimming treatment and water maze learning (antidepressant-like effects); details: phase 2 after open space swimming; 25 mg/kg intraperitoneal
Description: Fifty (50) male C57BL/6N mice that had experienced no experiment were bred in an animal room with a constant temperature and humidity for which a 12-12-hour light-dark cycle had been set. Mice were sufficiently acclimatized to breeding environment and then used as subject animals. At the start of the experiment, mice were 10-14-week old and the average body weight was 23.7 g (SD=3.21). The subject animals were divided into four groups each consisting of 12 or 13 mice so that the groups were almost the same average body weights and average ages in weeks. These groups were designated an OS-Akino group, an OS-SSRI group, an OS-Vehicle group, and a noOS-Vehicle group, respectively. An experimental apparatus was a circular pool coated white having a diameter of 110 cm and a height of 40 cm. The pool was filled with water to the depth of 22 cm. Titanium oxide was added to make water cloudy. The water temperature was maintained at 24° C.±1 ° C.
The experiment was composed of two phases. In phase 1, subject mice of the 3 groups under OS conditions were subjected to open space swimming treatment (OS) for 5 straight days. Specifically, subject mice were released into the pool from a wall once a day and then caused to swim for 5 minutes. […] Specifically, 5 times a day, mice were released into the pool and then the time for the mice to reach the escape platform (escape latency) was measured. […]

Row | Structure (SMILES) | sedative effects (mice [1]) | rectal temperature (deep body temperature) (mice [2]) | amount of spontaneous activity (male C57BL/6N mice [3]) | water maze learning (male C57BL/6N mice [4])
1 | NCC(=O)O [glycine] | sedative effects | lowered the deep body temperature, but the rate of decrease was lower | – | –
2 | CN1C(=O)CN=C(c2ccccc2)c2cc(Cl)ccc21 [Dia, diazepam] | – | – | higher than that of the FS-Vehicle group | –
3 | Cn1c(=O)c2c(ncn2C)n(C)c1=O [Caf, caffeine] | – | – | equivalent to that of the FS-Vehicle group | –
4 | NCCCC(=O)O [GABA, γ-aminobutyric acid] | sedative effects | lowered the deep body temperature, but the rate of decrease was lower | – | –
5 | CCNC(=O)CC[C@H](N)C(=O)O [teanin] | sedative effects | lowered the deep body temperature, but the rate of decrease was lower | – | –
6 | CN(C)CCCN1c2ccccc2CCc2ccccc21 [Imi, imipramine] | – | – | equivalent to that of the FS-Vehicle group | –
7 | COCCCC/C(=N\OCCN)c1ccc(C(F)(F)F)cc1 [SSRI, fluvoxamine maleate] | – | – | equivalent to that of the FS-Vehicle group | good learning

— patent US20110076349A1 (priority 2008, published 2011)
